For assay [1], the target named is T1, rat adrenergic α1A receptor (Rattus norvegicus, UniProt P43140).
T1 construct: obtained from Wistar Rat submaxillary glands; from tissue; host or cells: Wistar rat submaxillary glands
T1 sequence (P43140 1-466): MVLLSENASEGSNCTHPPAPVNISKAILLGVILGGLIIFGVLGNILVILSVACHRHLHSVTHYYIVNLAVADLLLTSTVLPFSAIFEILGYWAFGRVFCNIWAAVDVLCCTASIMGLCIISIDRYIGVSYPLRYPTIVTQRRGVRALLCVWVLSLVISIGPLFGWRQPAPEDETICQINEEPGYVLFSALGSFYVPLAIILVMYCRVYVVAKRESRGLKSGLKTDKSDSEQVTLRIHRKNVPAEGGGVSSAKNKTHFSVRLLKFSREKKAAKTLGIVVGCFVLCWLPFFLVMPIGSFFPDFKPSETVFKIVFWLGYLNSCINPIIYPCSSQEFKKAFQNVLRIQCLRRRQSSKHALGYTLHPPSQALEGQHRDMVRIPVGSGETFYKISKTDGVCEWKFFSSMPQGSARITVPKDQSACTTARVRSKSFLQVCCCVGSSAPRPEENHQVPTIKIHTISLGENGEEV
In words: Adrenergic α1A radioligand binding ([3H]Prozosin). The note with it: compound at 1 μM; Wistar Rat submaxillary glands; read-out: Adrenergic (1 μM) α1A, percent inhibition of specific binding. The procedure:
To evaluate in radioligand binding assays the activity of compounds of the invention, rat adrenergic α1A receptor obtained from Wistar Rat submaxillary glands (Michel, A. D. et al., Br. J. Pharmacol. 98:883, 1989) in a modified Tris-HCl buffer (50 mM Tris-HCl buffer, pH 7.4, 0.5 mM EDTA) was used. Compounds of the invention were incubated with 0.25 nM [^3H]Prozosin for 60 minutes at 25° C. Non-specific binding was estimated in the presence of 10 μM phentolamine. Receptor proteins were filtered and washed, the filters were then counted to determine [^3H]Prozosin specifically bound. Compounds of the invention were screened at 1 μM or lower, using 1% DMSO as vehicle. Compounds of the invention were tested in this biochemical assay and percent inhibition of specific binding was determined. Biochemical assay results are presented as the percent inhibition of specific binding in Table 6.

The target in assay [2] is T2, human recombinant serotonin (5-Hydroxytryptamine) 5-HT2B receptor (Homo sapiens, UniProt P41595).
T2 construct: expressed in transfected cells; host or cells: CHO-K1 cells
In words: Serotonin 5-HT2B radioligand binding ([3H]LSD). The note with it: compound at 1 μM; CHO-K1 cells; read-out: Serotonin (1 μM) 5-HT2B, percent inhibition of specific binding. Here is the method:
To evaluate in radioligand binding assays the activity of compounds of the invention, human recombinant serotonin (5-Hydroxytryptamine) 5-HT2B receptor expressed in Chinese hamster ovary (CHO-K1) cells (Bonhaus, D. W. et al., Br. J. Pharmacol. 115:622, 1995) in a modified Tris-HCl buffer (50 mM Tris-HCl, pH 7.4, 4 mM CaCl2, 0.1% Ascorbic Acid) was used. Compounds of invention were incubated with 1.2 nM [^3H]Lysergic acid diethylamide (LSD) for 60 minutes at 37° C. Non-specific binding was estimated in the presence of 10 μM Serotonin (5-HT). Receptor proteins were filtered and washed, the filters were then counted to determine [^3H]LSD specifically bound. Compounds were screened at 1 μM or lower, using 1% DMSO as vehicle. Compounds of the invention were tested in this biochemical assay and percent inhibition of specific binding was determined. Biochemical assay results are presented as the percent inhibition of specific binding in Table 7.

The target of assay [3] is T3, human recombinant adrenergic α2C receptor (Homo sapiens, UniProt P18825).
T3 construct: expressed in transfected cells; host or cells: insect Sf9 cells
T3 sequence (P18825 1-462): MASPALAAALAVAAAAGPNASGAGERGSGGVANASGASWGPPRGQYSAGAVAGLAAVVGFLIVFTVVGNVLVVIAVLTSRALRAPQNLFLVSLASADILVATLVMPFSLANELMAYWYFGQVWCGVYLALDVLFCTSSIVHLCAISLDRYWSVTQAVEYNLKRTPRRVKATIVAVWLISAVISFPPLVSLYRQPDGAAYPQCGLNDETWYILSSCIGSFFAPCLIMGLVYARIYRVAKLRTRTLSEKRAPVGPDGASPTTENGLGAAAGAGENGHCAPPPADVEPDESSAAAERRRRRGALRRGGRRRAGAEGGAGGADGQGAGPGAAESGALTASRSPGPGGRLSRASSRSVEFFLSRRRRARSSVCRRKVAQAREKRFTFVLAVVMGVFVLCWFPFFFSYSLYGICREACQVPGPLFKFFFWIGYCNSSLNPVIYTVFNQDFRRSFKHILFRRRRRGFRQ
The experiment in a line: Adrenergic α2C radioligand binding ([3H]MK-912). As to conditions: compound at 1 μM; insect Sf9 cells; read-out: Adrenergic (1 μM) α2C, percent inhibition of specific binding. Here is the method: To evaluate in radioligand binding assays the activity of compounds of the invention, human recombinant adrenergic α2C receptor expressed in insect Sf9 cells (Uhlen S et al. J Pharmacol Exp Ther. 271:1558, 1994) in a modified Tris-HCl buffer (50 mM Tris-HCl, pH 7.4, 12.5 mM MgCl2, 2 mM EDTA) was used. Compounds of the invention were incubated with 1 nM [^3H]MK-912 for 60 minutes at 25° C. Non-specific binding was estimated in the presence of 10 μM WB-4101. Receptor proteins were filtered and washed, the filters were then counted to determine [^3H]MK-912 specifically bound. Compounds were screened at 1 μM or lower, using 1% DMSO as vehicle. Compounds of the invention were tested in this biochemical assay and percent inhibition of specific binding was determined. Biochemical assay results are presented as the percent inhibition of specific binding in Table 6.

Inhibition data for 11 molecules are collected here from patent publication US9115137B2, “2,3,4,5-tetrahydro-1H-pyrido[4,3-B]indole compounds and methods of use thereof” (priority 2008, dated 2015).

T2 sequence (P41595 whole entry): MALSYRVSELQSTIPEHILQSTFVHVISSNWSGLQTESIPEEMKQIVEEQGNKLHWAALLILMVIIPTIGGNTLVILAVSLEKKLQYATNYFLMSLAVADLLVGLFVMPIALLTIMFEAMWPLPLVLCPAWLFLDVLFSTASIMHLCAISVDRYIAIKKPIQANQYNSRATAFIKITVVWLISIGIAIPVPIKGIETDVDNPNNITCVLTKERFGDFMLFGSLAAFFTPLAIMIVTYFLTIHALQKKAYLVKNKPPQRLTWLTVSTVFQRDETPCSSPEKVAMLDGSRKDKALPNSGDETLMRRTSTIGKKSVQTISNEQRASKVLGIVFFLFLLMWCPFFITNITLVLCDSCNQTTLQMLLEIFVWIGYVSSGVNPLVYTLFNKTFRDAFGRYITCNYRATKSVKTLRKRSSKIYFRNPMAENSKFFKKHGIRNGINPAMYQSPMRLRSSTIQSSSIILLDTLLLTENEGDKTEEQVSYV

Consider `Cc1ccc2c(c1)c1c(n2CCNC(=O)OCC(Cl)(Cl)Cl)CCN(C)C1` [Compound 8, 2,2,2-trichloroethyl 2-(1,2,3,4-tetrahydro-2,8-dimethylpyrido[4,3-b]indol-5-yl)ethylcarbamate], for which the inhibition (in general, the change of the read-out against control, counted positive when it falls) at 1 µM worked out at 82% in assay [1], 64% in assay [2] and 22% in assay [3].

With `CCNC(=O)CCn1c2c(c3cc(C)ccc31)CN(C)CC2` [Compound 2, N-ethyl-3-(1,2,3,4-tetrahydro-2,8-dimethylpyrido[4,3-b]indol-5-yl)propanamide], the inhibition at 1 µM stood at 10% in assay [1], 20% in assay [2] and 2% in assay [3].

Take `Cc1ccc2c(c1)c1c(n2CCNC(=O)C2CCCNC2)CCN(C)C1` (stereo not drawn) [Compound 9, N-(2-(1,2,3,4-tetrahydro-2,8-dimethylpyrido[4,3-b]indol-5-yl)ethyl)piperidine-3-carboxamide]: the inhibition at 1 µM in assay [1] is 5%; in assay [2], -5%; in assay [3], -8%.

Regarding `C#CCn1c2c(c3cc(C)ccc31)CN(C)CC2` [CD73, 2,8-dimethyl-5-(prop-2-ynyl)-2,3,4,5-tetrahydro-1H-pyrido[4,3-b]indole], the inhibition at 1 µM in assay [1] was found to be 65%; in assay [2] it was 94%; in assay [3], 43%.

Regarding `CCNC(=O)CCCn1c2c(c3cc(C)ccc31)CN(C)CC2` [Compound 6, N-ethyl-4-(1,2,3,4-tetrahydro-2,8-dimethylpyrido[4,3-b]indol-5-yl)butanamide], the inhibition at 1 µM in assay [1] worked out at 18%; in assay [2], 21%; in assay [3], 48%.

With `Cc1ccc2c(c1)c1c(n2CCC(=O)NC2CCCCC2)CCN(C)C1` [Compound 3, N-cyclohexyl-3-(1,2,3,4-tetrahydro-2,8-dimethylpyrido[4,3-b]indol-5-yl)propanamide], the results for the inhibition at 1 µM in assay [1], in assay [2] and in assay [3] were 8%, 21% and 1%, respectively.

`Cc1ccc2c(c1)c1c(n2CCC(=O)NC2CCCC2)CCN(C)C1` [Compound 4, N-cyclopentyl-3-(1,2,3,4-tetrahydro-2,8-dimethylpyrido[4,3-b]indol-5-yl)propanamide]: the inhibition at 1 µM in assay [1] worked out at 35%; in assay [2], 40%; in assay [3], 4%.

With `CCOC(=O)CCCn1c2c(c3cc(C)ccc31)CN(C)CC2` [Compound 5, ethyl 4-(1,2,3,4-tetrahydro-2,8-dimethylpyrido[4,3-b]indol-5-yl)butanoate], the inhibition at 1 µM was 69% in assay [1], 77% in assay [2] and 50% in assay [3].

With `Cc1ccc2c(c1)c1c(n2CC#N)CCN(C)C1` [CD61, 2-(1,2,3,4-tetrahydro-2,8-dimethylpyrido[4,3-b]indol-5-yl)acetonitrile], the inhibition at 1 µM in assay [1] was 82%; in assay [2], 43%; in assay [3], 39%.

In the case of `CCOC(=O)CCn1c2c(c3cc(C)ccc31)CN(C)CC2` [CD1, ethyl 3-(1,2,3,4-tetrahydro-2,8-dimethylpyrido[4,3-b]indol-5-yl)propanoate], the values for the inhibition at 1 µM in assay [1], in assay [2] and in assay [3] were 79%, 54% and 42%, respectively.

For `CNC(=O)CCn1c2c(c3cc(C)ccc31)CN(C)CC2` [Compound 1, 3-(1,2,3,4-tetrahydro-2,8-dimethylpyrido[4,3-b]indol-5-yl)-N-methylpropanamide], the inhibition at 1 µM in assay [1] was found to be 5%; in assay [2], 23%; in assay [3], 4%.
